From article PMC4906375, “Contribution of Amphipathicity and Hydrophobicity to the Antimicrobial Activity and Cytotoxicity of β-Hairpin Peptides” (ACS Infectious Diseases, 2016) come the findings set out here.

Values after ≈ are worked out from the molar mass of the structure shown. Residues, ends and D or L forms follow the SMILES beside them. Bounds are passed on as bounds.

Data set [1] deals with C. albicans ATCC 90028. Kind of data set: microbe, parasite or virus in culture. The data set is classed as cell-based, Candida albicans. As for the experimental part:
(§1) Both antibacterial and antifungal MIC assays were performed by a broth microdilution plate based method as per CLSI guidelines for antimicrobial susceptibility testing.[53],[54] […] Full assay details are included in the Supporting Information with a full list of strains tested in Table S1.
(§2) Antibacterial assay (Minimum Inhibitory Concentration [MIC]).
(§3) MIC assay was performed by a broth microdilution plate based method as per CLSI guidelines for antimicrobial susceptibility testing of aerobic bacteria.1 Compounds were prepared at 1.28 mg/mL solution in water. The tested strains, Table S1, were cultured in Luria broth (LB) (In Vitro Technologies, USB75852), at 37 °C overnight. A sample of culture was then diluted 40Pfold in fresh Muller Hinton broth (MHB) (Bacto laboratories, 211443) and incubated at 37 °C for 1.5P2 h. The compounds were serially diluted twoPfold across the wells, with compound concentrations ranging from 0.015 µg/mL to 512 µg/mL, plated in duplicate. The resultant midPlog phase cultures were diluted to the final concentration of 1×10^6 CFU/mL, then 50 µL was added to each well of the compoundP containing 96Pwell plates (Corning 3641, NonPbinding Surface [NBS]), giving a final compound concentration range of 0.008 µg/mL to 256 µg/mL and 5x10^5 CFU/mL. All the plates were covered and incubated at 37 °C for 18 h. MICs were determined visually, being defined as the lowest concentration showing no visible growth. Resazurin was added at 0.001% final concentration to each well and incubated for 2 h before MICs were rePread for confirmation using the colour change from blue to pink to indicate wells containing viable cells. The resazurin assay was added in some wells where some form of precipitate was present in otherwise clear wells, making it difficult to ascertain which wells had visible […]
Antifungal assay (Minimum Inhibitory Concentration [MIC]). MIC assay was performed by a broth microdilution plate based method as per CLSI guidelines for antimicrobial susceptibility testing.2 Fungi strains, Table S1, were cultured for 3 days on Yeast ExtractPPeptone Dextrose (YPD) (SigmaPAldrich, Y1500) agar at 30 °C. A yeast suspension of 1x10^6 to 5x10^6 CFU/mL was prepared from five colonies. These stock suspensions were diluted with Yeast Nitrogen Base (YNB) (Becton Dickinson, 233520) broth to a final concentration of 2.5 ×10^3 CFU/mL. All samples, compounds and standards were plated in 96Pwell plates (Corning 3641, NonPbinding Surface [NBS]), by adding 10 µL of 1.28 mg/mL stock solution to each well and 90 µL of media. Then, the samples were serial diluted (1:2) in 12 concentrations across the plate. The standard antifungal ranged from 256 […]
µg/mL to 0.12 µg/mL and compounds from 128 µg/mL to 0.06 µg/mL with final volumes of 50 µL per well, plated in duplicate. Then, 50 µL of the fungi suspension that was previously prepared in YNB broth to the final concentration of 2.5×10^3 CFU/mL, was added to each well of the compoundPcontaining plates, giving a final standard compound concentration range of 128 µg/mL to 0.06 µg/mL and tested compound from 64 µg/mL to 0.03 µg/mL. Plates were covered and incubated at 35 °C for 24 h. Candida albicans MICs were determined by measuring the absorbance at OD530. For Cryptococcus neoformans 10 µL of 0.06 % resazurin were added to the 24 h incubated plates. Then, these plates were incubated for another 3 h.
Cryptococcus neoformans MICs were determined by measuring the absorbance at OD570P600. […]

The conditions of data set [2]: hemolysis (%) at 300 μg/mL, human erythrocytes, 3 h, relative to 100% hemolysis by 1% Triton X-100.
For data set [3], the system named is B. subtilis ATCC 6051. The data set can be described thus: microbe, parasite or virus in culture. The data set is classed as cell-based, Bacillus subtilis. Conditions: ATCC 6051. Here is the method: as §1, §2, §3
(§4) Antifungal assay (Minimum Inhibitory Concentration [MIC]). MIC assay was performed by a broth microdilution plate based method as per CLSI guidelines for antimicrobial susceptibility testing.2 Fungi strains, Table S1, were cultured for 3 days on Yeast ExtractPPeptone Dextrose (YPD) (SigmaPAldrich, Y1500) agar at 30 °C. A yeast suspension of 1x10^6 to 5x10^6 CFU/mL was prepared from five colonies. These stock suspensions were diluted with Yeast Nitrogen Base (YNB) (Becton Dickinson, 233520) broth to a final concentration of 2.5 ×10^3 CFU/mL. All samples, compounds and standards were plated in 96Pwell plates (Corning 3641, NonPbinding Surface [NBS]), by adding 10 µL of 1.28 mg/mL stock solution to each well and 90 µL of media. Then, the samples were serial diluted (1:2) in 12 concentrations across the plate. The standard antifungal ranged from 256

Data set [4] deals with A. baumannii ATCC 19606. Format: cell-based, Acinetobacter baumannii. The following applies: ATCC 19606. As for the experimental part:
as §1, §2, §3, §4

In data set [5] the test system is E. coli ATCC 700926 (K12). The data set is classed as cell-based, Escherichia coli. Conditions: ATCC 700926. As for the experimental part:
as §1, §2, §3, §4

Data set [6] concerns E. coli ATCC 25922 (control strain). Format: cell-based, Escherichia coli. The following applies: ATCC 25922. As for the experimental part: as §1, §2, §3, §4
For data set [7], the system named is E. coli MB 4902 (ΔlpxC). Format: cell-based, Escherichia coli. The following applies: n = 4. As for the experimental part:
as §1, §2, §3, §4

Data set [8] deals with E. coli ATCC 25922 cytoplasmic membrane. Kind of data set: Inner membrane permeability measured by SYTOX green fluorescence emission. The following applies: for permeabilisation of the E. coli cytoplasmic membrane at lethal concentrations: SYTOX green, E. coli ATCC 25922, 1 h.
The test system of data set [9] is P. aeruginosa ATCC 27853. Format: cell-based, Pseudomonas aeruginosa. The following applies: ATCC 27853. Here is the method: as §1, §2, §3, §4

In the case of `CC(C)[C@@H]1NC(=O)CNC(=O)[C@H](CC(N)=O)NC(=O)[C@H](CCCNC(=N)N)NC(=O)[C@H](Cc2ccc(O)cc2)NC(=O)[C@H](C(C)C)NC(=O)[C@@H]2CSSC[C@H](NC(=O)[C@H](C(C)C)NC(=O)[C@H](CCCNC(=N)N)NC1=O)C(=O)N[C@@H](Cc1ccc(O)cc1)C(=O)N[C@@H](CCCNC(=N)N)C(=O)N[C@@H](CCCNC(=N)N)C(=O)N[C@H](C(=O)N[C@@H](CC(N)=O)C(=O)O)CSSC[C@H](NC(=O)[C@H](Cc1ccccc1)NC(=O)CN)C(=O)N[C@@H](Cc1c[nH]c3ccccc13)C(=O)N[C@@H](Cc1ccc(O)cc1)C(=O)N[C@@H](C(C)C)C(=O)N2` [arenicin-3] (HELM PEPTIDE1{G.F.C.W.Y.V.C.V.Y.R.N.G.V.R.V.C.Y.R.R.C.N}$PEPTIDE1,PEPTIDE1,3:R3-20:R3|PEPTIDE1,PEPTIDE1,7:R3-16:R3$$$V2.0), the MIC in data set [1] (ATCC 90028) came out at 64 µg/mL (≈ 24.5 µM); in data set [3], 8 µg/mL (≈ 3.06 µM); in data set [4], 0.5 µg/mL (≈ 0.191 µM); in data set [5], 0.25 µg/mL (≈ 0.0957 µM); in data set [6], 0.5 µg/mL (≈ 0.191 µM); in [7], 0.125 µg/mL (≈ 0.0478 µM). The compound also returned an MIC in data set [9] of 1 µg/mL (≈ 0.383 µM). For the same compound, in data set [2], the hemolysis came to 4%. Further, in data set [8], the “permeabilisation of the E. coli cytoplasmic membrane at lethal concentrations” value (shortened to “permeabilisation”) was “permeabilise”.

In the case of `CC(C)[C@@H]1NC(=O)[C@H](CCCNC(=N)N)NC(=O)[C@H](Cc2ccccc2)NC(=O)[C@@H](NC(=O)[C@H](Cc2c[nH]c3ccccc23)NC(=O)[C@H](CCCNC(=N)N)NC(=O)[C@@H](N)CCCNC(=N)N)CSSC[C@@H](C(=O)N[C@@H](CCCNC(=N)N)C(N)=O)NC(=O)[C@H](CCCCN)NC(=O)[C@H](CCCNC(=N)N)NC(=O)[C@H](Cc2ccc(O)cc2)NC(=O)[C@@H]2CSSC[C@H](NC1=O)C(=O)N[C@@H](Cc1ccc(O)cc1)C(=O)N[C@@H](CCCNC(=N)N)C(=O)NCC(=O)N[C@@H](Cc1ccccc1)C(=O)N2` [polyphemusin-1] (HELM PEPTIDE1{R.R.W.C.F.R.V.C.Y.R.G.F.C.Y.R.K.C.R.[am]}$PEPTIDE1,PEPTIDE1,4:R3-17:R3|PEPTIDE1,PEPTIDE1,8:R3-13:R3$$$V2.0), the MIC in data set [1] (ATCC 90028) is 1 µg/mL (≈ 0.407 µM); in data set [3], 0.25 µg/mL (≈ 0.102 µM); in data set [4] it was 0.06 µg/mL (≈ 0.0244 µM); in data set [5], 0.06 µg/mL (≈ 0.0244 µM); in data set [6] it was 0.5 µg/mL (≈ 0.204 µM); in data set [7], 0.03 µg/mL (≈ 0.0122 µM). This compound showed an MIC in data set [9] of 2 µg/mL (≈ 0.815 µM). Also, the hemolysis in data set [2] is ~30%. Also, the “permeabilisation” value in data set [8] is “permeabilise”. The “permeabilization concentration relative to MIC” value in [8] (same E. coli ATCC 25922 strain) was “lower concentration than their MIC”.

For `[H][C@]12CSSC[C@]([H])(NC(=O)[C@]([H])([C@@H](C)CC)NC(=O)CNC(=O)[C@H](CCCNC(=N)N)NC(=O)[C@H](Cc3ccc(O)cc3)NC1=O)C(=O)N[C@@H](Cc1ccc(O)cc1)C(=O)N[C@@H](CCCNC(=N)N)C(=O)N[C@@H](CCCNC(=N)N)C(=O)N[C@H](C(=O)N[C@@H](CCCNC(=N)N)C(N)=O)CSSC[C@H](NC(=O)[C@H](Cc1c[nH]c3ccccc13)NC(=O)[C@@H](N)CCCCN)C(=O)N[C@@H](Cc1ccccc1)C(=O)N[C@@H](CCCNC(=N)N)C(=O)N[C@@H](C(C)C)C(=O)N2` [tachyplesin-1] (HELM PEPTIDE1{K.W.C.F.R.V.C.Y.R.G.I.C.Y.R.R.C.R.[am]}$PEPTIDE1,PEPTIDE1,3:R3-16:R3|PEPTIDE1,PEPTIDE1,7:R3-12:R3$$$V2.0), the MIC in data set [1] (ATCC 90028) was 4 µg/mL (≈ 1.77 µM); in data set [3], 0.125 µg/mL (≈ 0.0552 µM); in data set [4], 0.125 µg/mL (≈ 0.0552 µM); in [5] it was 0.03 µg/mL (≈ 0.0133 µM); in data set [6], 0.06 µg/mL (≈ 0.0265 µM); in data set [7], 0.016 µg/mL (≈ 0.00707 µM). In data set [9], this compound displayed an MIC of 0.25 µg/mL (≈ 0.11 µM). In addition, in data set [2], the hemolysis is ~30%. For the same compound, the “permeabilisation” value in data set [8] is given as “permeabilise”.

For the compound `CC[C@H](C)[C@H](NC(=O)[C@@H](NC(=O)[C@@H]1CCCN1C(=O)[C@@H](NC(=O)[C@@H]1CCCN1C(=O)[C@H](CCCCN)NC(=O)[C@H](CCCCN)NC(=O)[C@H](CO)NC(=O)CN)C(C)C)[C@@H](C)CC)C(=O)N[C@@H](Cc1ccc(O)cc1)C(=O)N[C@H]1CSSC[C@@H](C(=O)N[C@@H](CCC(N)=O)C(=O)N[C@@H](CCCNC(=N)N)C(=O)N[C@@H](CCSC)C(N)=O)NC(=O)[C@H](CCCCN)NC(=O)CNC(=O)[C@H]([C@@H](C)O)NC(=O)[C@H](CCCNC(=N)N)NC(=O)[C@H](CCCNC(=N)N)NC(=O)[C@H](CC(N)=O)NC1=O` [thanatin], the MIC in [1] (C. albicans ATCC 90028, n = 4) was 64 µg/mL (≈ 26.3 µM); in data set [3] it was 128 µg/mL (≈ 52.6 µM); in data set [4], >256 µg/mL; in [5], 8 µg/mL (≈ 3.29 µM); in [6], 8 µg/mL (≈ 3.29 µM); in data set [7], 2 µg/mL (≈ 0.822 µM). The compound also yielded an MIC in data set [9] of 256 µg/mL (≈ 105 µM). The compound further came in with a hemolysis in data set [2] of 1.3 ± 0.4%. Further, the “permeabilisation” value in data set [8] was “does not permeabilise”.
